pIC50: −log10 of the molar value.
What was measured:
[1] = system: PC3 cells; assay: PC3 cell proliferation, 3D activity assay (3D culture, 14 days); assay type: cell-based, human; conditions: Homo sapiens, PC-3, 336 h, read-out: 3D inhibitory activity against PC3 cells IC50
Experimental: (§1) 2D activity assay: 1200 PC3 cells were seeded in a 96-well plate. After overnight adherence culture, A compound serially diluted was added. […] The growth of the cells was evaluated, and the IC50 of the compound inhibiting cell growth was calculated. 3D activity assay: PC3 cells were seeded in a 96-well plate at 1200 cells/well, and 3D culture was performed. 14 days after a compound serially diluted was added, the growth of the cells was measured. The inhibition percentage and IC50 of the compound were calculated compared to the DMSO control group.

[2] = system: PC3 cells; assay: PC3 cell proliferation, 2D activity assay (Cell Titer-Lumi, 72 h); assay type: cell-based, human; conditions: Homo sapiens, PC-3, read-out: 2D inhibitory activity against PC3 cells IC50
Experimental: as §1

[3] = target: FAK recombinant protein (Homo sapiens (Human), UniProt Q05397); assay: Inhibitory activity against FAK enzyme (HTRF, TK substrate); assay type: biochemical
FAK recombinant protein, sequence (Q05397 whole entry): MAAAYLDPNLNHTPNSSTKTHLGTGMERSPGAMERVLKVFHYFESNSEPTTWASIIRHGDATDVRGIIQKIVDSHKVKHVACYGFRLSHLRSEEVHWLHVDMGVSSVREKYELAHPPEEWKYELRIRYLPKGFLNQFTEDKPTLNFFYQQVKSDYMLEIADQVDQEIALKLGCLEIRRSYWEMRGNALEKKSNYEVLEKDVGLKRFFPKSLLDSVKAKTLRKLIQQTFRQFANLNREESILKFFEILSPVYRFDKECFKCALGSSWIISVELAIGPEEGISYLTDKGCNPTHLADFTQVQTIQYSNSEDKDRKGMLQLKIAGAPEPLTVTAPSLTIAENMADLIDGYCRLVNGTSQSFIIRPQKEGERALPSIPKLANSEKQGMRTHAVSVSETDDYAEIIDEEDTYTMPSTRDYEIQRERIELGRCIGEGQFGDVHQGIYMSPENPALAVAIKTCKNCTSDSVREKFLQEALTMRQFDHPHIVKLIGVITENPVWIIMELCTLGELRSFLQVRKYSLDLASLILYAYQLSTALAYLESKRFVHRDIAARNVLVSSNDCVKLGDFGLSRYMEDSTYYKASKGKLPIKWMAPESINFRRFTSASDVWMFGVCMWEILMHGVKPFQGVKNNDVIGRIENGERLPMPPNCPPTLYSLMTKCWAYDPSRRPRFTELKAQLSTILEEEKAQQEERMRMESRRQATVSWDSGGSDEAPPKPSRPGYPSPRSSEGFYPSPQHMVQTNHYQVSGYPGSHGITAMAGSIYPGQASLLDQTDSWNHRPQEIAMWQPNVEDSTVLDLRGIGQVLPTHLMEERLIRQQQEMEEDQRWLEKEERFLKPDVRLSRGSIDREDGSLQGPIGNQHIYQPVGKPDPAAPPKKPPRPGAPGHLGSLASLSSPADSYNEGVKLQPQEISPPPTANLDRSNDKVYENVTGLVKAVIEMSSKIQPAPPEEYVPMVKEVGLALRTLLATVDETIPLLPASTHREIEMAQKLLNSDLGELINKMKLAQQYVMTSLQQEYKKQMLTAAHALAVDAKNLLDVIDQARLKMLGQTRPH
Experimental: A compound serially diluted with DMSO was mixed with a FAK recombinant protein. After the mixture was left to stand at room temperature for 10 min, a biotin-labeled TK substrate (TK) and ATP were added. […] The inhibition percentage and IC50 of the compound were calculated compared to the DMSO control group.

| Structure (SMILES) | pIC50 [1] | pIC50 [2] | pIC50 [3] |
| --- | --- | --- | --- |
| COc1cc(N2C3CCC2CN(C)C3)ccc1Nc1ncc(Cl)c(Oc2cccc3c2C(=O)N(C)C32CC2)n1 [Compound 166] | 7.30 to 8.30 | < 5.70 | > 7.70 |
| COc1cc(N2CCN(C)CC2)c(F)cc1Nc1ncc(Cl)c(Oc2cccc3c2C(=O)N(C)C32CC2)n1 [Compound 140] | 7.30 to 8.30 | < 5.70 | > 7.70 |
| COCCN1CCN(c2ccc(Nc3ncc(Br)c(Oc4cccc5c4C(=O)N(C)C54CC4)n3)c(OC)c2)CC1 [Compound 185] | > 8.30 | < 5.70 | > 7.70 |
| COc1cc(N2CC3(CCN(C)CC3)CC2=O)ccc1Nc1ncc(C(F)(F)F)c(Oc2cccc3c2C(=O)N(C)C32CC2)n1 [Compound 63] | > 8.30 | < 5.70 | > 7.70 |
| COc1cc(N2CCN(C)CC2=O)ccc1Nc1ncc(C(F)(F)F)c(Oc2cccc3c2C(=O)N(C)C32CC2)n1 [Compound 83] | < 7.30 | < 5.70 | > 7.70 |
| COc1cc(N2CC3(CCN(C)C3)OC2=O)ccc1Nc1ncc(C(F)(F)F)c(Oc2cccc3c2C(=O)N(C)C32CC2)n1 (stereo not drawn) [Compound 65] | > 8.30 | < 5.70 | > 7.70 |
| CN1C(=O)c2c(Oc3nc(Nc4cnn5c4COCC5)ncc3C(F)(F)F)cccc2C12CC2 [Compound 95] | 7.30 to 8.30 | < 5.70 | > 7.70 |
| COc1cc(N2CCN(C)CC2)ccc1Nc1ncc(Br)c(Oc2cccc3c2C(=O)N(C)C32CC2)n1 [Compound 184] | 7.30 to 8.30 | < 5.70 | > 7.70 |
| [2H]C([2H])([2H])N1CCC(C)(NC(=O)c2ccc(Nc3ncc(C(F)(F)F)c(Oc4cccc5c4C(=O)N(C)C54CC4)n3)c(OC)c2)CC1 [Compound 42] | > 8.30 | < 5.70 | > 7.70 |
| COc1cc(CN(C)C)ccc1Nc1ncc(C(F)(F)F)c(Oc2cccc3c2C(=O)N(C)C32CC2)n1 [Compound 80] | 7.30 to 8.30 | < 5.70 | > 7.70 |
| COc1cc(C(=O)NC2COC3(CCN(C)CC3)C2)ccc1Nc1ncc(C(F)(F)F)c(Oc2cccc3c2C(=O)N(C)C32CC2)n1 (stereo not drawn) [Compound 17] | > 8.30 | < 5.70 | > 7.70 |
| COc1cc(CNC2CCN(C)CC2)ccc1Nc1ncc(Cl)c(Oc2cccc3c2C(=O)N(C)C32CC2)n1 [Compound 155] | 7.30 to 8.30 | < 5.70 | > 7.70 |
| COc1cc(C(=O)N2CCC3(CCCN(C)C3)C2)ccc1Nc1ncc(C(F)(F)F)c(Oc2cccc3c2C(=O)N(C)C32CC2)n1 (stereo not drawn) [Compound 61] | 7.30 to 8.30 | < 5.70 | > 7.70 |
| COc1cc(N2CCC(N(C)C)CC2)c(F)cc1Nc1ncc(Cl)c(Oc2cccc3c2C(=O)N(C)C32CC2)n1 [Compound 152] | 7.30 to 8.30 | < 5.70 | > 7.70 |
| COc1cc(C2CCN(C)CC2)c(F)cc1Nc1ncc(C(F)(F)F)c(Oc2cccc3c2C(=O)N(C)C32CC2)n1 [Compound 119, 4′-((2-((5-fluoro-2-methoxy-4-(1-methylpiperidin-4-yl)phenyl)amino)-5-(trifluoromethyl)pyrimidin-4-yl)oxy)-2′-methylspiro[cyclopropane-1,1′-isoindolin]-3′-one] | > 8.30 | < 5.70 | > 7.70 |
| COc1cc(N2CCC3CN(C)CCC32)ccc1Nc1ncc(Cl)c(Oc2cccc3c2C(=O)N(C)C32CC2)n1 (stereo not drawn) [Compound 168] | > 8.30 | < 5.70 | > 7.70 |
| COc1cc(C(=O)NC2CCC3(CC2)CCN(C)C3)ccc1Nc1ncc(C(F)(F)F)c(Oc2cccc3c2C(=O)N(C)C32CC2)n1 (stereo not drawn) [Compound 21] | > 8.30 | < 5.70 | > 7.70 |
| COc1cc(C2CCN(C)CC2)c(F)cc1Nc1ncc(Cl)c(Oc2cccc3c2C(=O)N(C)C32CC2)n1 [Compound 134, 4′-((5-chloro-2-((5-fluoro-2-methoxy-4-(1-methylpiperidin-4-yl)phenyl)amino)pyrimidin-4-yl)oxy)-2′-methylspiro[cyclopropane-1,1′-isoindolin]-3′-one] | > 8.30 | < 5.70 | > 7.70 |
| COc1cc(C(=O)NC2CCN3CCOC3C2)ccc1Nc1ncc(C(F)(F)F)c(Oc2cccc3c2C(=O)N(C)C32CC2)n1 (stereo not drawn) [Compound 29] | > 8.30 | < 5.70 | > 7.70 |
| COCCN1CCN(c2cc(OC)c(Nc3ncc(Cl)c(Oc4cccc5c4C(=O)N(C)C54CC4)n3)cc2F)CC1 [Compound 143] | > 8.30 | < 5.70 | > 7.70 |
| COc1cc(C(=O)NC2CCC3(CCN(C)C3)C2)c(F)cc1Nc1ncc(C(F)(F)F)c(Oc2cccc3c2C(=O)N(C)C32CC2)n1 (stereo not drawn) [Compound 24] | 7.30 to 8.30 | < 5.70 | > 7.70 |
| COc1cc(N2CC3(CCN(C)CC3)OC2=O)ccc1Nc1ncc(C(F)(F)F)c(Oc2cccc3c2C(=O)N(C)C32CC2)n1 [Compound 64] | 7.30 to 8.30 | < 5.70 | > 7.70 |
| COc1cc(N2CCN(CC(=O)N(C)C)CC2)ccc1Nc1ncc(Br)c(Oc2cccc3c2C(=O)N(C)C32CC2)n1 [Compound 187] | > 8.30 | < 5.70 | > 7.70 |
| COc1cc(N2CCC3(CCN(C)CC3)CC2)ccc1Nc1ncc(Cl)c(Oc2cccc3c2C(=O)N(C)C32CC2)n1 [Compound 147] | > 8.30 | < 5.70 | > 7.70 |

Now from value to molecule:

| pIC50 [1] | pIC50 [2] | pIC50 [3] | Structure (SMILES) |
| --- | --- | --- | --- |
| 7.30 to 8.30 | < 5.70 | > 7.70 | COc1cc(C(=O)NC2CC3(CCN(C)CC3)C2)ccc1Nc1ncc(Cl)c(Oc2cccc3c2C(=O)N(C)C32CC2)n1 [Compound 133, 4-((5-chloro-4-((2′-methyl-3′-oxospiro[cyclopropane-1,1′-isoindolin]-4′-yl)oxy)pyrimidin-2-yl)amino)-3-methoxy-N-(7-methyl-7-azaspiro[3.5]nonan-2-yl)benzamide] |
| 7.30 to 8.30 | < 5.70 | > 7.70 | CCN1CCC2(CC1)CC(NC(=O)c1cc(OC)c(Nc3ncc(C(F)(F)F)c(Oc4cccc5c4C(=O)N(C)C54CC4)n3)cc1F)C2 [Compound 48] |
| 7.30 to 8.30 | < 5.70 | > 7.70 | COc1cc(C(=O)NC2COC3(CCN(C)C3)C2)ccc1Nc1ncc(C(F)(F)F)c(Cc2cccc3c2C(=O)N(C)C32CC2)n1 (stereo not drawn) [Compound 105] |
| 7.30 to 8.30 | < 5.70 | > 7.70 | COc1cc(N2CC3CCN(C)C3C2)ccc1Nc1ncc(Cl)c(Oc2cccc3c2C(=O)N(C)C32CC2)n1 (stereo not drawn) [Compound 170] |
| > 8.30 | < 5.70 | > 7.70 | COc1cc(N2CCC(N3CCN(C)CC3)CC2)c(F)cc1Nc1ncc(Cl)c(Oc2cccc3c2C(=O)N(C)C32CC2)n1 [Compound 138] |
| < 7.30 | < 5.70 | > 7.70 | COc1cc(C(=O)NC2CCN(C)CC2)ccc1Nc1ncc(C)c(Oc2cccc3c2C(=O)N(C)C32CC2)n1 [Compound 115] |
| > 8.30 | < 5.70 | > 7.70 | COc1cc(C(=O)NC2CCN(C)CC2F)ccc1Nc1ncc(C(F)(F)F)c(Oc2cccc3c2C(=O)N(C)C32CC2)n1 (stereo not drawn) [Compound 33] |
| 7.30 to 8.30 | < 5.70 | > 7.70 | COc1cc(C(=O)NC2CC3(CCNCC3)C2)ccc1Nc1ncc(C(F)(F)F)c(Oc2cccc3c2C(=O)N(C)C32CC2)n1 [Compound 44] |
| > 8.30 | < 5.70 | > 7.70 | COc1cc(N2CCC(N(C)C)CC2)c(F)cc1Nc1ncc(C(F)(F)F)c(Oc2cccc3c2C(=O)N(C)C32CC2)n1 [Compound 128] |
| > 8.30 | < 5.70 | > 7.70 | COc1cc(N2CC3(CN(C)C3)C2)c(F)cc1Nc1ncc(C(F)(F)F)c(Oc2cccc3c2C(=O)N(C)C32CC2)n1 [Compound 125] |
| > 8.30 | < 5.70 | > 7.70 | COCCN1CCN(c2ccc(Nc3ncc(C(F)(F)F)c(Oc4cccc5c4C(=O)N(C)C54CC4)n3)c(OC)c2)CC1 [Compound 76, 4′-((2-((2-methoxy-4-(4-(2-methoxyethyl)piperazin-1-yl)phenyl)amino)-5-(trifluoromethyl)pyrimidin-4-yl)oxy)-2′-methylspiro[cyclopropane-1,1′-isoindolin]-3′-one] |
| > 8.30 | < 5.70 | > 7.70 | [2H]C([2H])([2H])N1CCC2(CC1)CC(NC(=O)c1cc(OC)c(Nc3ncc(C(F)(F)F)c(Oc4cccc5c4C(=O)N(C)C54CC4)n3)cc1F)C2 [Compound 47] |
| > 8.30 | < 5.70 | > 7.70 | COc1cc(N2CCC3(CC2)CN(C)C3)ccc1Nc1ncc(Br)c(Oc2cccc3c2C(=O)N(C)C32CC2)n1 [Compound 190] |
| 7.30 to 8.30 | < 5.70 | > 7.70 | COc1cc(C(=O)N2CCC23CCN(C)CC3)ccc1Nc1ncc(C(F)(F)F)c(Oc2cccc3c2C(=O)N(C)C32CC2)n1 [Compound 59] |
| > 8.30 | < 5.70 | > 7.70 | COc1cc(N2CC3CN(C)CC3C2)ccc1Nc1ncc(Cl)c(Oc2cccc3c2C(=O)N(C)C32CC2)n1 (stereo not drawn) [Compound 169] |
| < 7.30 | < 5.70 | > 7.70 | COc1cc(C(=O)NC2CCN(C)CC2)c(F)cc1Nc1ncc(Cl)c(Oc2cccc3c2C(=O)N(C)C32CCCCC2)n1 [Compound 212] |
| 7.30 to 8.30 | < 5.70 | > 7.70 | COc1cc(C(=O)NC2CCC3(CCN(C)CC3)C2)c(F)cc1Nc1ncc(C(F)(F)F)c(Oc2cccc3c2C(=O)N(C)C32CC2)n1 (stereo not drawn) [Compound 18] |
